This experiment addresses T1, Gonadotropin-releasing hormone receptor (Rattus norvegicus, UniProt P30969).
T1 sequence (P30969 whole entry): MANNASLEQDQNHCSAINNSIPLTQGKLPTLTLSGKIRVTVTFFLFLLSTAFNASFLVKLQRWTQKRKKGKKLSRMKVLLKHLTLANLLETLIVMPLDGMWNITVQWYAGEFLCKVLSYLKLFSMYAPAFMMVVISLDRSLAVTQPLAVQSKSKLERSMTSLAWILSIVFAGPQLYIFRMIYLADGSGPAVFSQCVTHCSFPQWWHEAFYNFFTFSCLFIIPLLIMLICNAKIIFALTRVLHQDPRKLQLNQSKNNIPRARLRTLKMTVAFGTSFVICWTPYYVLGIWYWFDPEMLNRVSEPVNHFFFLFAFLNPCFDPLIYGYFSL
The experiment in a line: Evaluated for gonadotropin-releasing hormone receptor binding by displacing the 50% of the bound tracer [125I][D-Lys6]-GnRH radioligand in rat pituitary receptors.

What is called IC50 is the midpoint of a concentration-inhibition curve. Low readings indicate greater potency, high ones weaker potency. The molecule `CC(C)C[C@H](NC(=O)[C@@H](CCCCNC(=O)CCCC(=O)OCc1ccc2c(c1)C(=O)c1ccccc1C2=O)NC(=O)[C@H](Cc1ccc(O)cc1)NC(=O)[C@H](CO)NC(=O)[C@H](Cc1c[nH]c2ccccc12)NC(=O)[C@H](Cc1c[nH]cn1)NC(=O)[C@@H]1CCC(=O)N1)C(=O)N[C@@H](CCCNC(=N)N)C(=O)N1CCC[C@H]1C(=O)NCC(N)=O` came in with an IC50 of 2 pM.
